± gives the standard deviation of the averaged measurements.
Legend:
17-AAG [1] = compound: T1, C=CCNC1=C2C[C@@H](C)C[C@H](OC)[C@H](O)[C@@H](C)/C=C(\C)[C@H](OC(N)=O)[C@@H](OC)/C=C\C=C(/C)C(=O)NC(=CC1=O)C2=O [17-AAG]; assay: area under dose-response curve of surviving fraction (unscaled, Aref=0) (surviving fraction x log10(nM)); higher = more resistant; details: exposure time: 5 days; dose range 0.5-1000 nM
How it was run: (§1)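 Each tumour cell line was screened three times in 384-well plates, receiving eight inhibitor concentrations from 0.5 to 1000 nM for five days. CellTiter-Glo luminescence gave viability, normalised to DMSO-only wells. Using the drc R package, surviving fractions were fitted with 3-parameter logistic dose-response curves, and the unscaled activity area over log10 dose (Aref = 0) was taken as the area under the curve.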

[2] = compound: CCN(CC)CCCCNc1ncc2cc(-c3cc(OC)cc(OC)c3)c(NC(=O)NC(C)(C)C)nc2n1; assay: as above; details: exposure time: 5 days; dose range 0.5-1000 nM
How it was run: as §1

VISMODEGIB = compound: CS(=O)(=O)c1ccc(C(=O)Nc2ccc(Cl)c(-c3ccccn3)c2)c(Cl)c1 [VISMODEGIB]; assay: as above; details: exposure time: 5 days; dose range 0.5-1000 nM
How it was run: as §1

DOXORUBICIN = compound: COc1cccc2c1C(=O)c1c(O)c3c(c(O)c1C2=O)C[C@@](O)(C(=O)CO)C[C@@H]3O[C@H]1C[C@H](N)[C@H](O)[C@H](C)O1 [DOXORUBICIN]; assay: as above; details: exposure time: 5 days; dose range 0.5-1000 nM
How it was run: as §1

17-AAG [3] = compound: T1, 17-AAG; assay: surviving fraction relative to DMSO-only wells; higher = less growth inhibition; details: exposure time: 5 days
How it was run: (§2)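 Tumour cell lines in log phase were plated in 384-well plates at 250–500 cells per well, then, after 24 hours, exposed continuously for five days to inhibitors at 0.5, 1, 5, 10, 50, 100, 500 and 1000 nM. Viability came from CellTiter-Glo luminescence, and surviving fraction is that signal normalised to the median of DMSO-only wells. Plates were read after 10 minutes at room temperature, and each line, screened three times, was kept only when replicate Pearson r was >0.7 and median Z' was >0.3.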

NUTLIN3 = compound: COc1ccc(C2=N[C@@H](c3ccc(Cl)cc3)[C@@H](c3ccc(Cl)cc3)N2C(=O)N2CCNC(=O)C2)c(OC(C)C)c1 [NUTLIN3]; assay: as above; details: exposure time: 5 days
How it was run: as §2

Test System	area under dose-response curve (17-AAG [1])	area under dose-response curve [2]	area under dose-response curve (VISMODEGIB)	area under dose-response curve (DOXORUBICIN)	surviving fraction (17-AAG [3]; 0.5 nM)	surviving fraction (17-AAG [3]; 1 nM)	surviving fraction (17-AAG [3]; 5 nM)	surviving fraction (17-AAG [3]; 10 nM)	surviving fraction (17-AAG [3]; 50 nM)	surviving fraction (17-AAG [3]; 100 nM)	surviving fraction (17-AAG [3]; 500 nM)	surviving fraction (17-AAG [3]; 1000 nM)	surviving fraction (NUTLIN3; 0.5 nM)	surviving fraction (NUTLIN3; 1 nM)	surviving fraction (NUTLIN3; 5 nM)	surviving fraction (NUTLIN3; 10 nM)	surviving fraction (NUTLIN3; 50 nM)	surviving fraction (NUTLIN3; 100 nM)	surviving fraction (NUTLIN3; 500 nM)	surviving fraction (NUTLIN3; 1000 nM)
G292 BONE	1.84	2.16	3.2	1.77	0.928 ± 0.035	0.934 ± 0.031	0.956 ± 0.052	0.792 ± 0.018	0.295 ± 0.018	0.266 ± 0.0069	0.0898 ± 0.01	0.087 ± 0.004	0.982 ± 0.028	0.955 ± 0.03	1.06 ± 0.047	1.05 ± 0.032	1.03 ± 0.044	0.989 ± 0.026	1.01 ± 0.045	0.979 ± 0.054
HCC38 BREAST	0.903		2.67	1.77	0.802 ± 0.19	0.906 ± 0.26	0.293 ± 0.082	0.185 ± 0.067	0.0753 ± 0.022	0.0727 ± 0.0085	0.059 ± 0.0092	0.0613 ± 0.0025	1.19 ± 0.29	1.23 ± 0.12	1.35 ± 0.062	1.29 ± 0.12	1.28 ± 0.14	1.28 ± 0.11	1.22 ± 0.22	1.26 ± 0.25
HCC70 BREAST	1.53	3.36	3.57	2.04	1.01 ± 0.09	0.971 ± 0.066	1.01 ± 0.046	0.804 ± 0.0083	0.091 ± 0.017	0.0907 ± 0.012	0.073 ± 0.017	0.0667 ± 0.0091	1.03 ± 0.094	1.03 ± 0.043	1.02 ± 0.063	1.05 ± 0.087	1.07 ± 0.085	1.14 ± 0.055	1.04 ± 0.073	1.07 ± 0.084
HMLE3 BREAST	1.61	2.61	3.06	1.36	0.875 ± 0.029	0.889 ± 0.079	0.973 ± 0.037	0.925 ± 0.062	0.0453 ± 0.0025	0.0247 ± 0.0011	0.021 ± 0.002	0.024 ± 0.001	0.967 ± 0.059	0.985 ± 0.041	1.02 ± 0.028	0.996 ± 0.085	0.982 ± 0.046	0.995 ± 0.043	0.964 ± 0.025	1.02 ± 0.024
HMT3552 BREAST					0.913	0.915	1.15	0.904	0.087	0.064	0.056	0.062	0.97	0.984	1	1	1.19	1.21	1.12	1.14
HS57T BREAST					0.973 ± 0.08	0.919 ± 0.025	0.699 ± 0.064	0.263 ± 0.032	0.134 ± 0.011	0.126 ± 0.0038	0.105 ± 0.0035	0.106 ± 0.0049	0.965 ± 0.045	0.991 ± 0.018	1.01 ± 0.045	1.04 ± 0.046	1.01 ± 0.023	1.12 ± 0.033	1.06 ± 0.027	1.04 ± 0.071
HS578T BREAST	1.45	3.03	3.11	1.93	0.904 ± 0.057	0.928 ± 0.033	0.525 ± 0.1	0.409 ± 0.051	0.281 ± 0.049	0.234 ± 0.022	0.213 ± 0.026	0.222 ± 0.026	1.11 ± 0.067	0.926 ± 0.069	0.883 ± 0.19	0.8973 ± 0.0049	0.92 ± 0.041	0.936 ± 0.072	0.913 ± 0.14	0.921 ± 0.06
